{"source": "ChEMBL document CHEMBL5465560", "about": "“Selectivity Literature for EUbOPEN Chemogenomic Library” (2024)", "key": {"[1]": {"target": "T1, Aurora kinase A (Homo sapiens) (UniProt O14965)", "T1 sequence (whole entry)": "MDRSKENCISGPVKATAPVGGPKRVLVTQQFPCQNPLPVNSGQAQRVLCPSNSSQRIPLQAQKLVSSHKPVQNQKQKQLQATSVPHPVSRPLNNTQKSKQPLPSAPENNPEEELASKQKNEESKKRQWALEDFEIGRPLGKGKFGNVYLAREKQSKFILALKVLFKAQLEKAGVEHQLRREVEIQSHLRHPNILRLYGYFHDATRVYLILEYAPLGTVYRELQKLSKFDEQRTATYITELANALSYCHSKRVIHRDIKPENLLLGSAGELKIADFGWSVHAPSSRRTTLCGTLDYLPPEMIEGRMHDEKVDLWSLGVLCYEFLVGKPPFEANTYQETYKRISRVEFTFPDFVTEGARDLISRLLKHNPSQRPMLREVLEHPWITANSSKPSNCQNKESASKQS", "assay": "Selectivity interaction (Kinase panel (DSF assay)) EUB0001558a STK6"}, "[2]": {"target": "T2, Mitogen-activated protein kinase 13 (Homo sapiens) (UniProt O15264)", "T2 sequence (whole entry)": "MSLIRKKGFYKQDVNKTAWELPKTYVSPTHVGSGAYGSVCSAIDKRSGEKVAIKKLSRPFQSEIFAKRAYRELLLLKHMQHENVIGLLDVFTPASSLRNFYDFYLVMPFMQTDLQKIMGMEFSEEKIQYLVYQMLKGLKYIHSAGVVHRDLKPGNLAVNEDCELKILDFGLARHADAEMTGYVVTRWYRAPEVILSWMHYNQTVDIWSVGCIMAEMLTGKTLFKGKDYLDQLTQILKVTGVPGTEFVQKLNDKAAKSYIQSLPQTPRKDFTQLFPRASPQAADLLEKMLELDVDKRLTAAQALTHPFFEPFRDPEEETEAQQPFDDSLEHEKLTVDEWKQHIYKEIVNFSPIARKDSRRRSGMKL", "assay": "Selectivity interaction (Kinase panel (DSF assay)) EUB0001558a MAPK13"}, "[3]": {"target": "Bromodomain-containing protein 4 (Homo sapiens, UniProt O60885)", "assay": "Selectivity interaction (Kinase panel (DSF assay)) EUB0001558a BRD4"}, "[4]": {"target": "Casein kinase I isoform epsilon (Homo sapiens, UniProt P49674)", "sequence (P49674 whole entry, looked up, canonical isoform)": "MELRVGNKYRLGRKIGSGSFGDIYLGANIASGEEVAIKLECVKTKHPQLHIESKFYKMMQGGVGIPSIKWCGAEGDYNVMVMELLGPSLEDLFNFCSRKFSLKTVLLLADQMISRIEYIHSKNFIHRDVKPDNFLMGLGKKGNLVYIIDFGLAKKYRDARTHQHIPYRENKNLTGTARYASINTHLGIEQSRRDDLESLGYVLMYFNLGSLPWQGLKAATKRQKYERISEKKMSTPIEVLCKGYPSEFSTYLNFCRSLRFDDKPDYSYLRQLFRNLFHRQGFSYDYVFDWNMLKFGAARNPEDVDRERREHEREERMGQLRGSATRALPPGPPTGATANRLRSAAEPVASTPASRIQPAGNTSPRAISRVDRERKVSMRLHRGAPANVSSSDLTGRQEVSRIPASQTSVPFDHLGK", "assay": "Selectivity interaction (ActivX KiNativ screen (kinase selectivity in THP-1 cell lysates)) EUB0000639a CSNK1E", "type": "subcellular", "conditions": "lysate"}, "[5]": {"target": "T3, MAP/microtubule affinity-regulating kinase 4 (Homo sapiens) (UniProt Q96L34)", "T3 sequence (whole entry)": "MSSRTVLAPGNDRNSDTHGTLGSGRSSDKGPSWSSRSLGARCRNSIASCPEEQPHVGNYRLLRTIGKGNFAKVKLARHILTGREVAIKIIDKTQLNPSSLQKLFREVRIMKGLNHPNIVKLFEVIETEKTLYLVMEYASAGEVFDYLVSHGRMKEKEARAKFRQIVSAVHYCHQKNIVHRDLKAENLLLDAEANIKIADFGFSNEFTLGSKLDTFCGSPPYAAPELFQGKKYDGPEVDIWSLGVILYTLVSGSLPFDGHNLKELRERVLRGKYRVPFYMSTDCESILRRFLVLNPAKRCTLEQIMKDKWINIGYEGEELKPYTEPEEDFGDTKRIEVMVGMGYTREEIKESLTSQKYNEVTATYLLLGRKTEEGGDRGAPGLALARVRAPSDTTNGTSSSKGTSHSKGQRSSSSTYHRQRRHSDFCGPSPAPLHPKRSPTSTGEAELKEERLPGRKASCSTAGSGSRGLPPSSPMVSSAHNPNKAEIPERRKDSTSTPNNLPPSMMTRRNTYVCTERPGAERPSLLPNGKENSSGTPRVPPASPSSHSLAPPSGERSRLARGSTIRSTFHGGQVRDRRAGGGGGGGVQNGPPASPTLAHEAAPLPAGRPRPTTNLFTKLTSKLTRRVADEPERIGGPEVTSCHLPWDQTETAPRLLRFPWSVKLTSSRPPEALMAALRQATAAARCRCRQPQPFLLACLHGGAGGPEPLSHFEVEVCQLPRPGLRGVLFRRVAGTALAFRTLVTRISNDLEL", "assay": "Selectivity interaction (Kinase panel (Invitrogen)) EUB0000639a MARK4", "conditions": "at 200 nM"}, "[6]": {"target": "Tyrosine-protein kinase BTK (Homo sapiens, UniProt Q06187)", "sequence (Q06187 whole entry)": "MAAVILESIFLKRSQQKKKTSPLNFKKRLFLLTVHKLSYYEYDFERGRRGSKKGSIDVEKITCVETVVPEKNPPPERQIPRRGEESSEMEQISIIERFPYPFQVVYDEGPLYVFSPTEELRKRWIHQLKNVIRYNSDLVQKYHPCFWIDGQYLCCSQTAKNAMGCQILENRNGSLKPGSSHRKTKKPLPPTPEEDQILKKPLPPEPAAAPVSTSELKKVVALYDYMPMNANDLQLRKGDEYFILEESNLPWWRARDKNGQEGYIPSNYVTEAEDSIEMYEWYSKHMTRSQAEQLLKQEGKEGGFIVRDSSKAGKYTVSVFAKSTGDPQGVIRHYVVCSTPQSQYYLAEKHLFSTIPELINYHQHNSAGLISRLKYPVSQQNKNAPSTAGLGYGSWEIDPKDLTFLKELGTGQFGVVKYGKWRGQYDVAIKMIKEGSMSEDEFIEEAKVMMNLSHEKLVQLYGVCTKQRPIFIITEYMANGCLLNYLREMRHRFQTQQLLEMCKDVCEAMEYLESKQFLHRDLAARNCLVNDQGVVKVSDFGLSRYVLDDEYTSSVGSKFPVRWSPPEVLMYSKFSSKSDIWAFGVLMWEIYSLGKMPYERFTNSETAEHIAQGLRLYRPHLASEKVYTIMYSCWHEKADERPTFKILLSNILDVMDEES", "conditions": "at 1 µM"}, "[7]": {"target": "Serine/threonine-protein kinase pim-3 (Homo sapiens) (UniProt Q86V86)", "assay": "Selectivity interaction (KinomeScan (DiscoverX)) EUB0000655a PIM3", "conditions": "at 10 µM"}, "[8]": {"target": "T4, Muscle, skeletal receptor tyrosine-protein kinase (Homo sapiens) (UniProt O15146)", "T4 sequence (whole entry)": "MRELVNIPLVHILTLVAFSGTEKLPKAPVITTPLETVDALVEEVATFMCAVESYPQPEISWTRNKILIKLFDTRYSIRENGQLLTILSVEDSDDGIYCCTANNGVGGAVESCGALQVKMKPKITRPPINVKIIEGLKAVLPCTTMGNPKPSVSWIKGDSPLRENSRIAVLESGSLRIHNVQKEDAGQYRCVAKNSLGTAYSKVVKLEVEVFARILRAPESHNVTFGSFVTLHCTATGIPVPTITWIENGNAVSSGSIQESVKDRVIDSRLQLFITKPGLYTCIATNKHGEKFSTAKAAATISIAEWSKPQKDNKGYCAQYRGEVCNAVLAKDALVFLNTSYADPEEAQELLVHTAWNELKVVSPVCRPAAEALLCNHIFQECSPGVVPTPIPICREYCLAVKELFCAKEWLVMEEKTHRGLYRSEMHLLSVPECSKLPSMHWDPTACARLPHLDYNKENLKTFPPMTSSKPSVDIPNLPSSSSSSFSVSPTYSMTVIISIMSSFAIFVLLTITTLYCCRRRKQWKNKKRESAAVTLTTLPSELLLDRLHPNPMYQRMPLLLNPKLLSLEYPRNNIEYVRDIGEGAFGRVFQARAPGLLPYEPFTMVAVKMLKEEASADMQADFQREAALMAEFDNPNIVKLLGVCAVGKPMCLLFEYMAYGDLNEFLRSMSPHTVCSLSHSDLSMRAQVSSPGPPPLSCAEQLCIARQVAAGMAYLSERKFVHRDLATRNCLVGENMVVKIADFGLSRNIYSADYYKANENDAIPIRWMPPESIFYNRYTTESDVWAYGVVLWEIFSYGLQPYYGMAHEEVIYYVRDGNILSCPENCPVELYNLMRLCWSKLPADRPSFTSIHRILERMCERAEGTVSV", "assay": "Selectivity interaction (KinomeScan (DiscoverX)) EUB0000695a MUSK", "conditions": "at 100 nM"}, "[9]": {"target": "Serine/threonine-protein kinase 10 (Homo sapiens) (UniProt O94804)", "sequence (O94804 whole entry, looked up)": "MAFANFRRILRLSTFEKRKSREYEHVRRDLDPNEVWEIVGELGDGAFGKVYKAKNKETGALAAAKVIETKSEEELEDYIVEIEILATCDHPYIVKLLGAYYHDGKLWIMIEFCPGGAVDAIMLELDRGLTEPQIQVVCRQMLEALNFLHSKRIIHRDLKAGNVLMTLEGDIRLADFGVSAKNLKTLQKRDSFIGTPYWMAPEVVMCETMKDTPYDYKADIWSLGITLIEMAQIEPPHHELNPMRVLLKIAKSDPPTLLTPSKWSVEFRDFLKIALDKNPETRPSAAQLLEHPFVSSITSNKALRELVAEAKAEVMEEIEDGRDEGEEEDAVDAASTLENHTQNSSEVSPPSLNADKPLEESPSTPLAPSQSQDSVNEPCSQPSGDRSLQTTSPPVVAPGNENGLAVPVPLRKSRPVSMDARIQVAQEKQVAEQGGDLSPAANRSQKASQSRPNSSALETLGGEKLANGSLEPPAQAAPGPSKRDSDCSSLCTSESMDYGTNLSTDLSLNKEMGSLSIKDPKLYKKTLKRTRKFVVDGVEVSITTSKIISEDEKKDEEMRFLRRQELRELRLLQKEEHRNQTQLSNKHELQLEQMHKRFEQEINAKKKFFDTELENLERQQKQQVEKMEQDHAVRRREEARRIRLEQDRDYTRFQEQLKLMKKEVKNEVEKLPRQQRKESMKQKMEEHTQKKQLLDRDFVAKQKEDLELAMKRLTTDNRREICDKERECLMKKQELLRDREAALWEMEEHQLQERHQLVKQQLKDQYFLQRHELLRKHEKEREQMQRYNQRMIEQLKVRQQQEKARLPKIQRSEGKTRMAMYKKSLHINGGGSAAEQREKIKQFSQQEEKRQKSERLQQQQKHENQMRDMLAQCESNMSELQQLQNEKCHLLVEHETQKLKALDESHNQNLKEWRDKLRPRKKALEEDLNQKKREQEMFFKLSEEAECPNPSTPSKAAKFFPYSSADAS", "assay": "Selectivity interaction (KinomeScan (DiscoverX)) EUB0000695a STK10", "conditions": "at 100 nM"}, "[10]": {"target": "CDK1/Cyclin A (Homo sapiens) (UniProt P06493+P20248)", "sequence (P06493 whole entry, looked up)": "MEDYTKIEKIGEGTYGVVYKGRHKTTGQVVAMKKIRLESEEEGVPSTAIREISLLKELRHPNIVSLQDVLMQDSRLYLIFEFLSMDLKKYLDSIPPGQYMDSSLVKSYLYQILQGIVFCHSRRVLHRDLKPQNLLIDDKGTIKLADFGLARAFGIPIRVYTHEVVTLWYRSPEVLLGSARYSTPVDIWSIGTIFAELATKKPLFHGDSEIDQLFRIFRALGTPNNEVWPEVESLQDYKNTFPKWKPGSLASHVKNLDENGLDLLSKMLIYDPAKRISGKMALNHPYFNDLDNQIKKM", "sequence (P20248 whole entry, looked up)": "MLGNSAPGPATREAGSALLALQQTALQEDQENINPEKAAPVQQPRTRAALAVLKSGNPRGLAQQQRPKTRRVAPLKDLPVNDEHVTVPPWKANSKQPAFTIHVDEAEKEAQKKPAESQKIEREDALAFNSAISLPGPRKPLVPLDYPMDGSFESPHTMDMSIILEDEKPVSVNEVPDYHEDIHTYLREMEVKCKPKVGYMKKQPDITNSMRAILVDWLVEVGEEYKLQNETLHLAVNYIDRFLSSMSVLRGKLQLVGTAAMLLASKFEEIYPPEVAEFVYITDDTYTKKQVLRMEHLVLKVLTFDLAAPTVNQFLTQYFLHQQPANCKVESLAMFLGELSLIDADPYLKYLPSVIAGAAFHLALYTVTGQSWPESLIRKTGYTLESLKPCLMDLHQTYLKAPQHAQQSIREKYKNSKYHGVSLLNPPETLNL", "assay": "Selectivity interaction (LanthaScreen Eu Kinase Binding Assay) EUB0001632a CDK1", "type": "protein-complex assay", "conditions": "at 10 µM"}}}
{"smiles": "CC(C)(O)[C@H](F)CN1Cc2cc(NC(=O)c3cnn4cccnc34)c(N3CCOCC3)cc2C1=O", "values": [{"measurement": "dTM", "setting": "[1]", "value": 3.3, "unit": "K"}, {"measurement": "dTM", "setting": "[2]", "value": -0.3, "unit": "K"}, {"measurement": "dTM", "setting": "[3]", "value": 0.4, "unit": "K"}]}
{"smiles": "CC[C@@H]1[C@H](F)C(=O)N[C@@H]1COc1nccc2cc(C(N)=O)c(OC)cc12", "note": "[ZIMLOVISERTIB]", "values": [{"measurement": "% of inhibition", "setting": "[4]; at 0.01 µM", "value": -6.6, "unit": "%"}, {"measurement": "% of inhibition", "setting": "[4]; at 0.04 µM", "value": 20.3, "unit": "%"}, {"measurement": "% of inhibition", "setting": "[4]; at 0.2 µM", "value": 53, "unit": "%"}, {"measurement": "% of inhibition", "setting": "[4]; at 1 µM", "value": 77.8, "unit": "%"}, {"measurement": "% of inhibition", "setting": "[4]; at 5 µM", "value": 94.8, "unit": "%"}, {"measurement": "% of inhibition", "setting": "[5]", "value": 14, "unit": "%"}]}
{"smiles": "C=CC(=O)Nc1cc(-n2c(=O)ccc3cnc4ccc(-c5ccc(NS(C)(=O)=O)cc5)cc4c32)ccc1C", "values": [{"measurement": "% of control", "setting": "[6]", "value": 1, "unit": "%"}]}
{"smiles": "CN(C)CCOc1ccc(-c2nc(-c3ccncc3)c(-c3ccc4c(c3)CC/C4=N\\O)[nH]2)cc1", "values": [{"measurement": "% of control", "setting": "[7]", "value": 88, "unit": "%"}]}
{"smiles": "Cc1cc(F)c(C(=O)Nc2cccc(-c3nncn3C(C)C)n2)cc1-n1cnc(C2CC2)c1", "values": [{"measurement": "% of control", "setting": "[8]", "value": 91, "unit": "%"}, {"measurement": "% of control", "setting": "[9]", "value": 100, "unit": "%"}]}
{"smiles": "Cn1cc(-n2cnc3c(NCc4nc5cc(Cl)c(Cl)cc5[nH]4)nc(N4CCOCC4)nc32)cn1", "values": [{"measurement": "% of inhibition", "setting": "[10]", "value": -246, "unit": "%"}]}
